From the NIST ThermoML archive (doi:10.1016/j.jct.2016.12.032)

What was measured:
[1] = 100 kPa, Liquid; for mass density: Vibrating tube method; for viscosity: Capillary tube (Ostwald / Ubbelohde) method; for speed of sound: Frequency=3 MHz, Sing-around technique in a fixed-path interferometer
[2] = xn = mol fraction of the nth substance listed; conditions: 100 kPa, Liquid, x1 = 1; for viscosity: Capillary tube (Ostwald / Ubbelohde) method; for mass density: Vibrating tube method
[3] = refractive index (Na D-line) (dimensionless); conditions: 100 kPa, Liquid, Standard Abbe refractometry

CCCC[n+]1ccn(C)c1.O=S(=O)([N-]S(=O)(=O)C(F)(F)F)C(F)(F)F
[1]
Conditions	mass density [kg/m3]
293.15 K	1441.61
298.15 K	1436.67
303.15 K	1431.58
308.15 K	1426.62
313.15 K	1421.58
318.15 K	1416.58
323.15 K	1411.54

CCCC[n+]1ccn(C)c1.O=S(=O)([N-]S(=O)(=O)C(F)(F)F)C(F)(F)F + CC1CC(=O)O1
[2]
Conditions	mass density [kg/m3]	viscosity [mPa·s]
293.15 K	1441.61	62.08
298.15 K	1436.67	50.05
303.15 K	1431.58	41.24
308.15 K	1426.62	33.65
313.15 K	1421.58	28.28
318.15 K	1416.58	23.91
323.15 K	1411.54	20.64

CCCC[n+]1ccn(C)c1.O=S(=O)([N-]S(=O)(=O)C(F)(F)F)C(F)(F)F + CC1CCC(=O)O1
[2]
Conditions	mass density [kg/m3]	viscosity [mPa·s]
293.15 K	1441.61	62.08
298.15 K	1436.67	50.05
303.15 K	1431.58	41.24
308.15 K	1426.62	33.65
313.15 K	1421.58	28.28
318.15 K	1416.58	23.91
323.15 K	1411.54	20.64

CCCC[n+]1ccn(C)c1.O=S(=O)([N-]S(=O)(=O)C(F)(F)F)C(F)(F)F + O=C1CCCCCO1
[2]
Conditions	mass density [kg/m3]	viscosity [mPa·s]
293.15 K	1441.61	62.08
298.15 K	1436.67	50.05
303.15 K	1431.58	41.24
308.15 K	1426.62	33.65
313.15 K	1421.58	28.28
318.15 K	1416.58	23.91
323.15 K	1411.54	20.64

CCCC[n+]1ccn(C)c1.O=S(=O)([N-]S(=O)(=O)C(F)(F)F)C(F)(F)F + O=C1CCCCO1
[2]
Conditions	mass density [kg/m3]	viscosity [mPa·s]
293.15 K	1441.61	62.08
298.15 K	1436.67	50.05
303.15 K	1431.58	41.24
308.15 K	1426.62	33.65
313.15 K	1421.58	28.28
318.15 K	1416.58	23.91
323.15 K	1411.54	20.64

O=C1CCCCO1 [1-oxacyclohexan-2-one]
[1]
Conditions	mass density [kg/m3]	speed of sound [m/s]	viscosity [mPa·s]
293.15 K	1108.53	1587.2	3.68
298.15 K	1103.96	1569.2	3.3
303.15 K	1099.44	1551.3	2.98
308.15 K	1094.83	1533.5	2.7
313.15 K	1090.27	1516	2.47
318.15 K	1085.71	1498.6	2.25
323.15 K	1081.16	1481.5	2.09

CC1CC(=O)O1 (stereo not drawn) [4-methyl-2-oxetanone]
Conditions	mass density, [1] [kg/m3]	refractive index, [3]	speed of sound, [1] [m/s]	viscosity, [1] [mPa·s]
293.15 K	1055.93	1.414	1371	1.68
298.15 K	1050.68	1.412	1352.8	1.55
303.15 K	1045.31	1.41	1334.7	1.48
308.15 K	1039.85	1.407	1316.7	1.4
313.15 K	1034.33	1.405	1298.8	1.33
318.15 K	1028.79	1.403	1281.1	1.25
323.15 K	1023.19	1.401	1263.6	1.18

O=C1CCCCCO1 [6-hexanolactone]
Conditions	mass density, [1] [kg/m3]	refractive index, [3]	speed of sound, [1] [m/s]	viscosity, [1] [mPa·s]
293.15 K	1075.92	1.463	1567.8	6.63
298.15 K	1071.67	1.461	1548.3	5.76
303.15 K	1067.41	1.459	1529	5.04
308.15 K	1063.15	1.457	1510	4.44
313.15 K	1058.9	1.455	1491.2	3.95
318.15 K	1054.65	1.454	1472.7	3.53
323.15 K	1050.4	1.452	1454.5	3.17

CC1CCC(=O)O1 (stereo not drawn) [γ-valerolactone]
Conditions	mass density, [1] [kg/m3]	refractive index, [3]	speed of sound, [1] [m/s]	viscosity, [1] [mPa·s]
293.15 K	1053.99	1.434	1447.3	1.99
298.15 K	1049.28	1.432	1429.2	1.82
303.15 K	1044.58	1.43	1411.3	1.67
308.15 K	1039.87	1.427	1393.5	1.53
313.15 K	1035.16	1.425	1375.9	1.42
318.15 K	1030.45	1.423	1358.4	1.32
323.15 K	1025.74	1.421	1341.2	1.23
